{"source": "patent US20150231276A1", "about": "“ROLE OF DH44 AND HOMOLOGS IN CALORIE SENSING” (New York University, priority 2014, published 2015)", "key": {"Dh44+ cells [1]": {"system": "Dh44+ cells", "experiment": "Ca2+ imaging (GCaMP3.0) of Dh44+ cell activity in response to sugars, ex vivo fly brains", "type": "cell-based, Drosophila melanogaster", "conditions": "for activation of Dh44+ cells: perfusion of sugar, brains of PDh44 GAL4>UAS-GCaMP3.0 flies, D-glucose 5, 20, 80 mM; for peak amplitude, oscillation number and frequency of Dh44+ cells activation: non-metabolized sugar treatment"}, "Dh44+ cells [2]": {"system": "Dh44+ cells", "experiment": "Ex vivo destaining experiment: Dh44 peptide release quantified by αDh44 immunofluorescence", "type": "cell-based, Drosophila melanogaster", "conditions": "for release of the Dh44 peptide (amount of Dh44 peptide left inside Dh44+ cells): brains of 18 h-food deprived flies incubated in AHL + sugar 80 mM for 30′, compared with saline (AHL)"}, "[3]": {"system": "CRH neurons in paraventricular nucleus (PVN)", "experiment": "Whole-cell patch-clamp recordings of glucose sensing response in brain slices", "type": "cell-based, mice", "set-up": "Input R: unit not given here", "description": "Whole-cell patch-clamp recordings from CRH neurons in paraventricular nucleus (PVN) slice preparation and data analysis were performed as previously described (ref).\nBriefly, 3 to 5 week old of either male or female mice were anesthetized with isoflurane and transcardially perfused with a modified ice-cold artificial CSF (ACSF) in which NaCl was substituted with an equal molar concentration of sucrose (described below). Then, the mice was decapitated, and the entire brain was removed and then immediately immersed in ice-cold ACSF (220 mM sucrose, 2.5 mM KCl, 5.0 mM MgCl2, 1.0 mM CaCl2, 1.0 mM NaH2PO4, 26 mM NaHCO3, and 10 mM glucose), saturated with 95% O2 and 5% CO2. A brain block containing PVN was mounted on a stage and coronal sections (250 um) were cut with a Leica Vibratome. The sectioned slices were then incubated in oxygenated ACSF at 34° C. for at least 1 hour before recording. The slices were transferred into recording chamber and bathed in oxygenated ACSF. The solution flowing the recording chamber was consists of: (126 mM NaCl, 26 mM NaHCO3, 2.8 mM KCl, 2.5 mM CaCl2, 1.25 mM NaH2PO4, 1.2 mM MgSO4, and 5 mM or 2.5 mM glucose). The pipette solution for whole-cell recording was modified to include an intracellular dye (Alexa Fluor 488): 120 mM K-gluconate, 10 mM KCl, 10 mM HEPES, 5 mM EGTA, 1 mM CaCl2, 1 mM MgCl2, and 2 mM MgATP, 0.03 mM Alexa Fluor 488 dye, pH 7.3. Electrophysiological signals were recorded using an […] amplifier (Molecular Devices), low-pass filtered at 2-5 kHz, and analyzed offline on a PC with pCLAMP programs (Molecular Devices). Recording electrodes had resistances of 4.0-6.0 MΩ when filled with K-gluconate pipette solution.\nAs the cells to be targeted illuminate red fluorescence from td-tomato, the pipette with positive pressure was attached to cell membrane, which was subsequently giga-sealed by brief negative pressure, before making a tiny hole with more negative pressure to perform whole-cell recordings. Only cells with a whole-cell resistance below 15 MΩ and with a stable resting membrane potential within 1 min were selected and carried out recording. […] At the end of a stable trace, its input resistance was assessed by measuring the voltage deflection to hyperpolarizing rectangular current pulse steps (500 ms of −10 to −50 pA). […] Depending on the cells, it took 1-5 min to change the membrane potential and firing rate. After stabilizing the change in electrophysiological response, input resistance was assessed in the same way as previously described. […] (For most CRH neurons as GE neurons, it took more than 10 min to recover after the response.)"}, "[4]": {"conditions": "Table 2, glucose back to 2.5 mM"}}, "note": "“Also recorded” adds a separate entry of the source. Like-named read-outs stand apart in the source and are kept apart here.", "data": [{"smiles": "NC1=N[C@H](O)[C@H]2[C@H]3O[C@]4(O)O[C@@H]([C@@H](O)[C@@]2(N1)[C@@H]4O)[C@]3(O)CO", "note": "[TTX, Tetrodotoxin]", "values": [{"measurement": "effect on D-glucose-mediated activity (Ca++ influx) of Dh44+ cells", "setting": "Dh44+ cells [1]", "result": "small but non-significant effect; also recorded: small but nonsignificant effect"}, {"measurement": "effect on D-glucose-induced Dh44 neuropeptide release", "setting": "Dh44+ cells [2]", "result": "did not affect"}]}, {"smiles": "O=C[C@H](O)[C@@H](O)[C@H](O)[C@H](O)CO", "note": "[D-glucose]", "values": [{"measurement": "activation of Dh44+ cells", "setting": "Dh44+ cells [1]", "result": "robust and persistent activation; also recorded: robustly activated"}, {"measurement": "f", "setting": "[3]; Table 1 (FIGS. 10A-10B), glucose 5 mM, first", "result": 0.64, "unit": "HZ"}, {"measurement": "Input R", "setting": "[3]; Table 1, glucose 2.5 mM", "result": 1.25}, {"measurement": "RMP", "setting": "[3]; Table 1, glucose 2.5 mM", "result": "−65.8874", "unit": "mV"}, {"measurement": "f", "setting": "[3]; Table 1, glucose 2.5 mM", "result": 0.02, "unit": "HZ"}, {"measurement": "Input R", "setting": "[3]; Table 1, glucose 5 mM", "result": 1.40}, {"measurement": "Rev P", "setting": "[3]; Table 1, glucose 5 mM to 2.5 mM", "result": "−222.95", "unit": "mV"}, {"measurement": "RMP", "setting": "[3]; Table 1, glucose 5 mM, first", "result": "−49.5691", "unit": "mV"}, {"measurement": "RMP", "setting": "[3]; Table 1, glucose back to 5 mM", "result": "−57.9124", "unit": "mV"}, {"measurement": "f", "setting": "[3]; Table 1, glucose back to 5 mM", "result": 0.65, "unit": "HZ"}, {"measurement": "Rev P", "setting": "[3]; Table 2", "result": "−169", "unit": "mV"}, {"measurement": "f", "setting": "[3]; Table 2 (FIGS. 11A-11B), glucose 2.5 mM, first", "result": 0.64, "unit": "HZ"}, {"measurement": "Input R", "setting": "[3]; Table 2, column headed glucose 2.5 mM", "result": 2.66}, {"measurement": "Input R", "setting": "[3]; Table 2, column headed glucose 5 mM", "result": 2.82}, {"measurement": "RMP", "setting": "[3]; Table 2, glucose 2.5 mM, first", "result": "−60.5911", "unit": "mV"}, {"measurement": "RMP", "setting": "[3]; Table 2, glucose 5 mM", "result": "−52.4561", "unit": "mV"}, {"measurement": "f", "setting": "[3]; Table 2, glucose 5 mM", "result": 0.02, "unit": "HZ"}, {"measurement": "RMP", "setting": "[3]; [4]", "result": "−59.3806", "unit": "mV"}, {"measurement": "f", "setting": "[3]; [4]", "result": 0.65, "unit": "HZ"}, {"measurement": "time to change the membrane potential and firing rate", "setting": "[3]; after recording solution changed from 5 mM to 2.5 mM glucose", "result": "1 to 5", "unit": "min"}, {"measurement": "electrical activity of the CRH neurons", "setting": "[3]; glucose changed from 2.5 mM to 5 mM", "result": "increased"}, {"measurement": "electrical activity of the CRH neurons", "setting": "[3]; glucose changed from 5 mM to 2.5 mM", "result": "decreased"}, {"measurement": "time to recover after the response", "setting": "[3]; recording solution changed back to 5 mM glucose, most CRH neurons", "result": "more than 10 min"}]}, {"smiles": "O=C(CO)[C@@H](O)[C@H](O)[C@H](O)CO", "note": "[D-fructose]", "values": [{"measurement": "activation of Dh44+ cells", "setting": "Dh44+ cells [1]", "result": "robustly activated"}, {"measurement": "activation of Dh44+ cells", "setting": "Dh44+ cells [1]; listed as fructose", "result": "robust and persistent activation"}]}, {"smiles": "O=C[C@@H](O)[C@H](O)[C@@H](O)[C@@H](O)CO", "note": "[L-glucose]", "values": [{"measurement": "peak amplitude, oscillation number and frequency of Dh44+ cells activation", "setting": "Dh44+ cells [1]", "result": "greatly reduced or nearly abolished"}, {"measurement": "activation of Dh44+ cells", "setting": "Dh44+ cells [1]", "result": "small increase in activity that lacked oscillations"}, {"measurement": "release of the Dh44 peptide (amount of Dh44 peptide left inside Dh44+ cells)", "setting": "Dh44+ cells [2]", "result": "did not result in the release; also recorded: did not induce"}]}, {"smiles": "O=CC[C@@H](O)[C@H](O)[C@H](O)CO", "note": "[2DG, 2-deoxy-D-glucose]", "values": [{"measurement": "peak amplitude, oscillation number and frequency of Dh44+ cells activation", "setting": "Dh44+ cells [1]", "result": "greatly reduced or nearly abolished"}, {"measurement": "activation of Dh44+ cells", "setting": "Dh44+ cells [1]", "result": "small increase in activity that lacked oscillations"}, {"measurement": "release of the Dh44 peptide (amount of Dh44 peptide left inside Dh44+ cells)", "setting": "Dh44+ cells [2]", "result": "did not result in the release"}, {"measurement": "release of the Dh44 peptide (amount of Dh44 peptide left inside Dh44+ cells)", "setting": "Dh44+ cells [2]; listed as D-2′-deoxy-glucose", "result": "did not induce"}]}, {"smiles": "O=C1NC(=O)C(=O)C(=O)N1", "note": "[Alloxan]", "values": [{"measurement": "oscillations of Dh44+ cells", "setting": "Dh44+ cells [1]; D-glucose + Alloxan perfusion", "result": "almost complete disappearance"}, {"measurement": "peak amplitude of activation of Dh44+ cells", "setting": "Dh44+ cells [1]; D-glucose + Alloxan perfusion", "result": "dramatic decrease"}, {"measurement": "effect on D-glucose-mediated activity (Ca++ influx) of Dh44+ cells", "setting": "Dh44+ cells [1]; agent added to the D-glucose solution, Alloxan 4 μM", "result": "greatly suppressed"}, {"measurement": "effect on D-glucose-induced Dh44 neuropeptide release", "setting": "Dh44+ cells [2]; agent together with D-glucose, ex vivo", "result": "did not result in the release; also recorded: reduction"}]}, {"smiles": "OC[C@H]1O[C@H](O[C@H]2O[C@H](CO)[C@@H](O)[C@H](O)[C@H]2O)[C@H](O)[C@@H](O)[C@@H]1O", "note": "[trehalose]", "values": [{"measurement": "activation of Dh44+ cells", "setting": "Dh44+ cells [1]", "result": "robust and persistent activation; also recorded: robustly activated"}]}]}
